Assay results published in ChEMBL document CHEMBL3124933, “Optimization of brain penetrant 11β-hydroxysteroid dehydrogenase type I inhibitors and in vivo testing in diet-induced obese mice” (J Med Chem, 2014).

Tests used:
physchem = conditions: buffer, pH 7.4
[1] = Clearance in iv dosed Han Wistar rat; type: ADME, organism-based; conditions: in vivo
[2] = Ratio of total drug level in brain to blood in Han Wistar rat at 30 mg/kg, po measured at 1 hr by LC-MS/MS analysis; type: ADME, organism-based; set-up: dose 30 mg/kg, route oral; conditions: read-out: BBR
[3] = Oral bioavailability in Han Wistar rat; type: ADME, organism-based; conditions: in vivo
[4] = Ratio of free drug level in brain to blood in Han Wistar rat at 30 mg/kg, po measured at 1 hr by LC-MS/MS analysis; type: ADME, organism-based; set-up: dose 30 mg/kg, route oral
[5] = Oral bioavailability in C57B6 mouse at 17.6 umol/kg; type: ADME, organism-based; conditions: in vivo
[6] = Volume of distribution at steady state in C57B6 mouse at 3.5 umol/kg, iv; type: ADME, organism-based; conditions: in vivo, read-out: Vdss
[7] = Clearance in Han Wistar rat at 5.2 umol/kg, iv; type: ADME, organism-based; conditions: in vivo
[8] = AUC in Han Wistar rat whole blood at 7.4 umol/kg, po
[9] = Volume of distribution at steady state in Han Wistar rat at 5.2 umol/kg, iv; type: ADME, organism-based; conditions: in vivo, read-out: Vdss
[10] = Oral bioavailability in Han Wistar rat at 7.4 umol/kg; type: ADME, organism-based; conditions: in vivo
[11] = Ratio of free drug level in brain to blood in diet-induced obese C57B6 mouse model at 4 to 40 mg/kg/day administered through diet for 21 days measured on day 24; type: ADME, organism-based; conditions: po
[12] = AUC in C57B6 mouse at 17.6 umol/kg, po; type: ADME, organism-based, Plasma; conditions: whole blood
[13] = Clearance in C57B6 mouse at 3.5 umol/kg, iv; type: ADME, organism-based; conditions: in vivo
[14] = Ratio of free drug level in brain to blood in diet-induced obese C57B6 mouse model at 20 mg/kg administered through diet for 21 days measured on day 24; type: ADME, organism-based; set-up: dose 20 mg/kg; conditions: po
[15] = Volume of distribution at steady state in Han Wistar rat at 3.1 umol/kg, iv; type: ADME, organism-based; conditions: in vivo, read-out: Vdss
[16] = AUC in Han Wistar rat at 12.3 umol/kg, po; type: ADME, organism-based, Plasma; conditions: whole blood
[17] = Clearance in Han Wistar rat at 3.1 umol/kg, iv; type: ADME, organism-based; conditions: in vivo
[18] = Volume of distribution at steady state in C57B6 mouse at 4 umol/kg, iv; type: ADME, organism-based; conditions: in vivo, read-out: Vdss
[19] = Oral bioavailability in Han Wistar rat at 12.3 umol/kg; type: ADME, organism-based; conditions: in vivo
[20] = Clearance in C57B6 mouse at 4 umol/kg, iv; type: ADME, organism-based; conditions: in vivo
[21] = AUC in C57B6 mouse at 14.3 umol/kg, po; type: ADME, organism-based, Plasma; conditions: whole blood
[22] = Oral bioavailability in C57B6 mouse at 14.3 umol/kg; type: ADME, organism-based; conditions: in vivo
[23] = Apparent permeability from apical to basolateral side in MDCK cells; type: ADME, cell-based, Canis lupus familiaris; conditions: dog

SMILES	logD (physchem)	Kp at 1 h [2]	bioavailability [3] [%]	further results
CCCSc1nc(C)sc1C(=O)N[C@H]1C2CC3CC1C[C@](O)(C3)C2	3.1	–	–	–
CS(=O)(=O)Cc1nc([C@H]2CCCO2)c(C(=O)NC2C3CC4CC2CC(O)(C4)C3)s1 (stereo partly specified)	0.4	< 0.05	65	clearance [1]: 1.02 L/h/kg
COc1nc([C@H]2CCCO2)c(C(=O)N[C@H]2C3CC4CC2C[C@](O)(C4)C3)s1	2.3	1.1	40	clearance [1]: 1.26 L/h/kg
COCCOc1nc([C@H]2CCCO2)c(C(=O)NC2C3CC4CC2CC(O)(C4)C3)s1 (stereo partly specified)	2.1	0.8	24	clearance [1]: 0.48 L/h/kg
COC[C@H](C)Oc1nc([C@H]2CCCO2)c(C(=O)NC2C3CC4CC2CC(O)(C4)C3)s1 (stereo partly specified)	2.8	0.9	16	clearance [1]: 0.78 L/h/kg
N#CC1CC(Oc2nc([C@H]3CCCO3)c(C(=O)NC3C4CC5CC3CC(O)(C5)C4)s2)C1 (stereo partly specified)	2.4	–	–	–
O=C(N[C@H]1C2CC3CC1C[C@](O)(C3)C2)c1sc(OC2CCOCC2)nc1[C@H]1CCCO1	2.6	1.1	–	Kp uu at 1 h [4]: 0.9; bioavailability [5]: 139%; Vd [6]: 1.7 L/kg; clearance [7]: 2.04 L/h/kg; AUC [8]: 3.9 µM·h; Vd [9]: 1 L/kg; bioavailability [10]: 83%; Kp uu at 504 h [11]: 0.5; AUC [12]: 20.6 µM·h; clearance [13]: 1.56 L/h/kg
COc1nc(C2CC2)c(C(=O)N[C@H]2C3CC4CC2C[C@](O)(C4)C3)s1	2.6	1.8	45	clearance [1]: 0.9 L/h/kg
CCOc1nc(C2CC2)c(C(=O)N[C@H]2C3CC4CC2C[C@](O)(C4)C3)s1	2.9	–	–	–
CC(C)Oc1nc(C2CC2)c(C(=O)N[C@H]2C3CC4CC2C[C@](O)(C4)C3)s1	3.4	–	–	–
O=C(N[C@H]1C2CC3CC1C[C@](O)(C3)C2)c1sc(OCCO)nc1C1CC1	1.6	0.2	25	clearance [1]: 0.3 L/h/kg
COCCOc1nc(C2CC2)c(C(=O)N[C@H]2C3CC4CC2C[C@](O)(C4)C3)s1	–	1.2	23	clearance [1]: 1.62 L/h/kg
COC[C@@H](C)Oc1nc(C2CC2)c(C(=O)N[C@H]2C3CC4CC2C[C@](O)(C4)C3)s1	2.6	–	–	–
COC[C@H](C)Oc1nc(C2CC2)c(C(=O)N[C@H]2C3CC4CC2C[C@](O)(C4)C3)s1	2.8	–	–	–
O=C(N[C@H]1C2CC3CC1C[C@](O)(C3)C2)c1sc(O[C@@H]2CCCO2)nc1C1CC1	2.4	–	–	–
O=C(N[C@H]1C2CC3CC1C[C@](O)(C3)C2)c1sc(OC2CCOCC2)nc1C1CC1	2.7	1.2	53	clearance [1]: 1.26 L/h/kg
O=C(N[C@H]1C2CC3CC1C[C@](O)(C3)C2)c1sc(OCC2CC2)nc1C1CC1	3.6	–	–	–
N#CC1(COc2nc(C3CC3)c(C(=O)N[C@H]3C4CC5CC3C[C@](O)(C5)C4)s2)CC1	2.6	0.4	–	Kp uu at 1 h [4]: 0.4; Kp uu at 504 h [14]: 0.2; Vd [15]: 0.6 L/kg; AUC [16]: 7.9 µM·h; clearance [17]: 0.96 L/h/kg; Vd [18]: 1 L/kg; bioavailability [19]: 79%; clearance [20]: 1.08 L/h/kg; AUC [21]: 12 µM·h; bioavailability [22]: 73%
Cc1nc(C(F)(F)F)c(C(=O)N[C@H]2C3CC4CC2C[C@](O)(C4)C3)s1	1.5	–	–	–
Cc1nc(C2CC2)c(C(=O)N[C@H]2C3CC4CC2C[C@](O)(C4)C3)s1	1.9	1.6	12	clearance [1]: 0.84 L/h/kg
Cc1nc([C@@H]2CCCO2)c(C(=O)N[C@H]2C3CC4CC2C[C@](O)(C4)C3)s1	1.8	–	–	–

SMILES	logD (physchem)	Kp at 1 h [2]	bioavailability [3] [%]	further results
Cc1nc([C@H]2CCCO2)c(C(=O)N[C@H]2C3CC4CC2C[C@](O)(C4)C3)s1	1.8	1.5	11	clearance [1]: 1.02 L/h/kg
CCc1nc([C@H]2CCCO2)c(C(=O)N[C@H]2C3CC4CC2C[C@](O)(C4)C3)s1	2.4	–	–	–
O=C(NC1C2CC3CC1CC(O)(C3)C2)c1scnc1[C@H]1CCCO1 (stereo partly specified)	1.6	–	0	clearance [1]: 3.12 L/h/kg
COCc1nc([C@H]2CCCO2)c(C(=O)N[C@H]2C3CC4CC2C[C@](O)(C4)C3)s1	1.9	–	–	–
COCCc1nc([C@H]2CCCO2)c(C(=O)N[C@H]2C3CC4CC2C[C@](O)(C4)C3)s1	1.8	–	–	–
Nc1nc([C@H]2CCCO2)c(C(=O)N[C@H]2C3CC4CC2C[C@](O)(C4)C3)s1	1.7	–	–	–
CNc1nc([C@H]2CCCO2)c(C(=O)N[C@H]2C3CC4CC2C[C@](O)(C4)C3)s1	2.1	–	–	–
CN(C)c1nc([C@H]2CCCO2)c(C(=O)N[C@H]2C3CC4CC2C[C@](O)(C4)C3)s1	2.7	–	–	–
O=C(NC1C2CC3CC1CC(O)(C3)C2)c1cnc(N[C@H]2CCOC2)nc1C1CCCC1 (stereo partly specified)	–	–	64	Papp A→B [23]: 30 nm/s
C[C@@H]1CN(c2ncc(C(=O)NC3C4CC5CC3CC(O)(C5)C4)c(C3CCCC3)n2)C[C@H](C)O1 (stereo partly specified)	3.6	–	70	Papp A→B [23]: 200 nm/s
C[C@@H]1CN(c2ncc(C(=O)NC3C4CC5CC3CC(O)(C5)C4)c([C@H]3CCCO3)n2)C[C@H](C)O1 (stereo partly specified)	2.3	0.3	35	Papp A→B [23]: 230 nm/s
COc1c(C(=O)NC2C3CC4CC2CC(O)(C4)C3)cnn1C (stereo unspecified)	0.4	0.1	27	–
COc1nc(C)sc1C(=O)N[C@H]1C2CC3CC1C[C@](O)(C3)C2	2	1.2	23	clearance [1]: 1.32 L/h/kg
COc1ncsc1C(=O)NC1C2CC3CC1CC(O)(C3)C2 (stereo unspecified)	1.7	–	–	–
O=C(N[C@H]1C2CC3CC1C[C@](O)(C3)C2)c1cncs1	0.8	–	–	–
Cc1nc(C)c(C(=O)N[C@H]2C3CC4CC2C[C@](O)(C4)C3)s1	1.3	–	–	–
CCOc1nc(C)sc1C(=O)N[C@H]1C2CC3CC1C[C@](O)(C3)C2	2.6	–	–	–
Cc1nc(OCC(F)(F)F)c(C(=O)N[C@H]2C3CC4CC2C[C@](O)(C4)C3)s1	3.1	–	–	–
Cc1nc(OC(C)C)c(C(=O)N[C@H]2C3CC4CC2C[C@](O)(C4)C3)s1	3	–	–	–
Cc1nc(OC2CCC2)c(C(=O)NC2C3CC4CC2CC(O)(C4)C3)s1 (stereo unspecified)	3.2	–	–	–
Cc1nc(OC2COC2)c(C(=O)N[C@H]2C3CC4CC2C[C@](O)(C4)C3)s1	1.5	–	–	–
